What all share (type): physicochemical
One data set can be described thus: Fluorescence lifetime. Conditions: for solvent viscosity sensitivity of fluorescence lifetime and quantum yield: solvents of Table 2.
A short description of data set [1]: Fluorescence emission and fluorescence quantum yield. The source says:
All commercially obtained reagents were used as received. 2,3,3-trimethyl indoline (S1), malonaldehyde bis(phenylimine) monohydrochloride, Grubb's 2nd generation and Hoyveda-Grubbs 2nd generation catalysts were purchased from Sigma-Aldrich (St. Louis, Mo.). Acrolein dimethyl acetal (2) was purchased from TCI America (Portland, Oreg.). 4-hydrazinylbenzoic acid (S5) was ordered from Oakwood Chemical (Estill, S.C.). 2-(2-bromoethyl)-1,3-dioxolane was purchased from Acros Organics (Geel, Belgium). NH2-PEG8-COOH was purchased from Thermo Scientific (Waltham, Mass.). Aminophalloidin tosylate was purchased from Enzo, Inc. (Farmingdale, N.Y.). Compounds S2, S4, and S8 were synthesized according to known procedures (Hanessian et al., J. Am. Chem. Soc. 2004, 126 (19), 6064-71; Hall et al., Nucleic Acids Res. 2012, 40 (14), e108; Park et al., Bioconjugate Chem. 2012, 23 (3), 350-362). Normal phase (60 Å, 20-40 m, RediSep® Rf Gold® silica or 60 Å, 35-70 m, RediSep® Rf silica) and reversed phase (100 Å, 20-40 micron particle size, RediSep® Rf Gold® Reversed-phase C18 or C18Aq) flash column chromatography was performed on a CombiFlash© Rf 200i (Teledyne Isco, Inc., Lincoln, Nebr.). Reversed-phase preparative HPLC was performed using an Agilent 1260 Infinity II LC system utilizing a SunFire Prep C18 column (100 Å, 5 m, 10×150 mm) obtained from Waters, Co (Milford, Mass.). High-resolution LC/MS analyses were conducted on a Thermo-Fisher LTQ-Orbitrap-XL hybrid mass spectrometer system with an Ion MAX API electrospray ion source in negative ion mode. Analytical LC/MS was performed using a Shimadzu LCMS-2020 Single Quadrupole utilizing a Kinetex C18 column (100 Å, 2.6 m, 2.1×50 mm) obtained from Phenomenex, Inc (Torrance, Calif.). Runs employed a gradient of 0-90% MeCN/0.1% aqueous formic acid over 4.5 min at a flow rate of 0.2 mL/min. ^1H NMR and ^13C NMR spectra were recorded on Bruker spectrometers (at 400 or 500 MHz or at 100 or 125 MHz) and are reported relative to deuterated solvent signals. Data for ^1H NMR spectra are reported as follows: chemical shift (6 ppm), multiplicity, coupling constant (Hz), and integration. Data for ^13C NMR spectra are reported in terms of chemical shift. Absorbance curves were obtained on a Shimadzu UV-2550 spectrophotometer operated by UVProbe 2.32 software. Molar absorption coefficients (F) were determined in PBS (50 mM, pH 7.4) or methanol (MeOH) using Beer's law, from plots of absorbance vs. concentration. Measurements were performed in 10 mm path length quartz cuvettes (Hellma 111-QS) that were maintained at room temperature, and reported values are averages (n≥3). Fluorescence traces were recorded on a PTI QuantaMaster steady-state spectrofluorimeter operated by FelixGX 4.2.2 software, with 4 nm excitation and emission slit widths, and a 0.1 s integration rate. […] Chem. Chem. Phys. 112009, 9850-9860). This instrument uses an integrating sphere to measure photons absorbed and emitted by a sample. […] Reported values are averages (n≥5). Data analysis and curve fitting were performed using MS Excel 2011 and GraphPad Prism 7. Light intensity measurements were performed with a Thorlabs PM200 optical power and energy meter fitted with an S120VC standard Si photodiode power sensor (200-1100 nm, 50 nW-50 mW). See JOC Standard Abbreviations and Acronyms for abbreviations (http://pubs.acs.org/paragonplus/submission/joceah/-joceah_abbreviations.pdf).

Data set [2] can be described thus: TCEP addition, formation of phosphine-polyene adducts. Conditions: 10 μM, TCEP in Tris (0.20 M, pH 9.0), absorbance at λmax. How it is done: FIG. 9 is a graph showing the effect of TCEP addition on absorbance of compound 7 and AF647 (10 μM each). Absorbance at λmax (compound 7 at 670 nm and AF647 at 650 nm) as a function of TCEP concentration in Tris (0.20 M, pH 9.0).
The formation of phosphine and thiol adducts in chemical and single molecule imaging contexts was also evaluated. TCEP (tris(2-carboxyethyl)phosphine) was add to compound 7 and AF647 (Alexa Fluor 647, available through ThermoFisher Scientific) (10 μM each) (Vaughan et al., JACS 2013, 135(4):1197-1200). Absorbance at λmax (compound 7 at 670 nm and AF647 at 650 nm) as a function of TCEP concentration in Tris (0.20 M, pH 9.0). Compound 7 (circles) appeared resistant to the formation of polyene-heteroatom adducts (FIG. 9).

Data set [3] in a line: Absorbance and molar absorption coefficient (Beer's law). Particulars: for shift in λmax: relative to unrestricted compound 10. The source says: All commercially obtained reagents were used as received. 2,3,3-trimethyl indoline (S1), malonaldehyde bis(phenylimine) monohydrochloride, Grubb's 2nd generation and Hoyveda-Grubbs 2nd generation catalysts were purchased from Sigma-Aldrich (St. Louis, Mo.). Acrolein dimethyl acetal (2) was purchased from TCI America (Portland, Oreg.). 4-hydrazinylbenzoic acid (S5) was ordered from Oakwood Chemical (Estill, S.C.). 2-(2-bromoethyl)-1,3-dioxolane was purchased from Acros Organics (Geel, Belgium). NH2-PEG8-COOH was purchased from Thermo Scientific (Waltham, Mass.). Aminophalloidin tosylate was purchased from Enzo, Inc. (Farmingdale, N.Y.). Compounds S2, S4, and S8 were synthesized according to known procedures (Hanessian et al., J. Am. Chem. Soc. 2004, 126 (19), 6064-71; Hall et al., Nucleic Acids Res. 2012, 40 (14), e108; Park et al., Bioconjugate Chem. 2012, 23 (3), 350-362). Normal phase (60 Å, 20-40 m, RediSep® Rf Gold® silica or 60 Å, 35-70 m, RediSep® Rf silica) and reversed phase (100 Å, 20-40 micron particle size, RediSep® Rf Gold® Reversed-phase C18 or C18Aq) flash column chromatography was performed on a CombiFlash© Rf 200i (Teledyne Isco, Inc., Lincoln, Nebr.). Reversed-phase preparative HPLC was performed using an Agilent 1260 Infinity II LC system utilizing a SunFire Prep C18 column (100 Å, 5 m, 10×150 mm) obtained from Waters, Co (Milford, Mass.). High-resolution LC/MS analyses were conducted on a Thermo-Fisher LTQ-Orbitrap-XL hybrid mass spectrometer system with an Ion MAX API electrospray ion source in negative ion mode. Analytical LC/MS was performed using a Shimadzu LCMS-2020 Single Quadrupole utilizing a Kinetex C18 column (100 Å, 2.6 m, 2.1×50 mm) obtained from Phenomenex, Inc (Torrance, Calif.). Runs employed a gradient of 0-90% MeCN/0.1% aqueous formic acid over 4.5 min at a flow rate of 0.2 mL/min. ^1H NMR and ^13C NMR spectra were recorded on Bruker spectrometers (at 400 or 500 MHz or at 100 or 125 MHz) and are reported relative to deuterated solvent signals. Data for ^1H NMR spectra are reported as follows: chemical shift (6 ppm), multiplicity, coupling constant (Hz), and integration. Data for ^13C NMR spectra are reported in terms of chemical shift. Absorbance curves were obtained on a Shimadzu UV-2550 spectrophotometer operated by UVProbe 2.32 software. Molar absorption coefficients (F) were determined in PBS (50 mM, pH 7.4) or methanol (MeOH) using Beer's law, from plots of absorbance vs. concentration. Measurements were performed in 10 mm path length quartz cuvettes (Hellma 111-QS) that were maintained at room temperature, and reported values are averages (n≥3). Fluorescence traces were recorded on a PTI QuantaMaster steady-state spectrofluorimeter operated by FelixGX 4.2.2 software, with 4 nm excitation and emission slit widths, and a 0.1 s integration rate. A Quantaurus-QY spectrometer (Hamamatsu, model C11374) was used to determine absolute fluorescence quantum yields (ΦF) (Suzuki et al., Phys. Chem. Chem. Phys. 112009, 9850-9860). This instrument uses an integrating sphere to measure photons absorbed and emitted by a sample. Measurements were carried out at a concentration of 250 nM in either MeOH or PBS (50 mM, pH 7.4) and self-absorption corrections were performed using the instrument software. Reported values are averages (n≥5). Data analysis and curve fitting were performed using MS Excel 2011 and GraphPad Prism 7. Light intensity measurements were performed with a Thorlabs PM200 optical power and energy meter fitted with an S120VC standard Si photodiode power sensor (200-1100 nm, 50 nW-50 mW). See JOC Standard Abbreviations and Acronyms for abbreviations (http://pubs.acs.org/paragonplus/submission/joceah/-joceah_abbreviations.pdf).

Data set [4] is described as follows: Temperature dependence of fluorescence emission. Particulars: in ethanol. The text has this: FIG. 7 is a graph showing the temperature dependence of fluorescence emission from compounds 4 (squares) and 10 (circles) in ethanol.
This is also due to photoisomerization in compound 10, which becomes more efficient at higher temperatures. The substantially longer lifetimes of compounds 4 and 7 relative to the unrestrained cyanine 10 point to significant potential for fluorescence lifetime imaging microscopy (FLIM).

The values that follow come from US11707537B2, “Conformational restriction of cyanine fluorophores in far-red and near-IR range” (The United States of America, as represented by the …, priority 2017, dated 2023).

Marks after values point to notes of the source that are not given here.

On to `CC1(C)C2=C3C=C4C=C5C6=[N+](CC[C@H]5O[C@H]4C[C@H]3CCN2c2ccc(S(=O)(=O)[O-])cc21)c1ccc(C(=O)O)cc1C6(C)C` [Compound 7], for which the τ in “Fluorescence lifetime” (in H2O) was 1.7^c ns. Moreover, the “solvent viscosity sensitivity of fluorescence lifetime and quantum yield” value in the data set “Fluorescence lifetime” is “largely solvent viscosity insensitive”. In data set [1] (in pH 7.4 PBS), the λem is on record as 683^b nm. The “formation of polyene-heteroatom adducts” value in data set [2] was “resistant”. Also, the λmax in data set [3] (in pH 7.4 PBS) is 670^b nm. Also, the ε in data set [3] (no solvent footnote on this cell (PBS or methanol)) is reported as 190,000 M^−1cm^−1. In addition, the “shift in λmax” value in data set [3] is given as “approximately 25 nm”.
Turning to `CC1(C)C2=C3C=C4C=C5C6=[N+](CC[C@H]5O[C@H]4C[C@H]3CCN2c2ccccc21)c1ccccc1C6(C)C` [Compound 4], the τ turned out to be 2.9 ns in “Fluorescence lifetime” (Acetone); 2.5 ns in the data set “Fluorescence lifetime” (EtOH); 2.3 ns in the data set “Fluorescence lifetime” (Glycerol); 2.8 ns in the data set “Fluorescence lifetime” (MeCN); 2.5 ns in the data set “Fluorescence lifetime” (in methanol (MeOH)). Also, the “solvent viscosity sensitivity of fluorescence lifetime and quantum yield” value in the data set “Fluorescence lifetime” is recorded as “largely solvent viscosity insensitive”. Also, the ΦF in data set [1] (Acetone, calculated by relative method) is recorded as 0.90; in data set [1] (EtOH, calculated by relative method) it was 0.68; in data set [1] (Glycerol, calculated by relative method), 0.66; in data set [1] (MeCN, calculated by relative method) it was 0.92; in data set [1] (in methanol (MeOH), integrating sphere), 0.69. The compound further returned a λem in data set [1] (in methanol) of 677 nm. Moreover, the “temperature sensitivity of fluorescence emission” value in data set [4] was “insensitive to temperature”. Further, the ε in data set [3] (in methanol) was 206,000 M^−1cm^−1. Also, the λmax in data set [3] (in methanol) was 662 nm. In data set [3], the “shift in λmax” value was “approximately 25 nm”.
